Values joined by “and” are separate entries in the source; they are usually repeats but may differ in a detail not shown here. Equal entries are not always repeated. ± gives the uncertainty stated by the source.
Tests used:
[1] = xn = mol fraction of the nth substance listed; settings: 293.15 K, 101 kPa

SMILES: C1COCCN1
- viscosity (293.15 K, 101 kPa): 2.12 ± 0.02 mPa·s and 2.282 ± 0.03 mPa·s
- viscosity (303.15 K, 101 kPa): 1.74 ± 0.02 mPa·s
- viscosity (313.15 K, 101 kPa): 1.45 ± 0.02 mPa·s
- viscosity (323.15 K, 101 kPa): 1.21 ± 0.01 mPa·s

SMILES: CC(=O)[O-].C[NH+]1CCCC1
- viscosity (298.15 K, 100 kPa): 3.78 ± 0.08 mPa·s

SMILES: CC(C)Br
- viscosity (298.15 K, 101 kPa): 0.4981 ± 0.028 mPa·s
- viscosity (303.15 K, 101 kPa): 0.4835 ± 0.028 mPa·s
- viscosity (308.15 K, 101 kPa): 0.4708 ± 0.027 mPa·s
- viscosity (313.15 K, 101 kPa): 0.4389 ± 0.026 mPa·s
- viscosity (318.15 K, 101 kPa): 0.4194 ± 0.025 mPa·s

SMILES: CC(CCO)CC(C)(C)C (stereo not drawn)
- viscosity (298.15 K, 101.33 kPa): 10.97 ± 0.4 mPa·s
- viscosity (303.15 K, 101.33 kPa): 10.44 ± 0.39 mPa·s
- viscosity (308.15 K, 101.33 kPa): 9.608 ± 0.36 mPa·s

SMILES: CC(O)CO (stereo not drawn)
- viscosity (293.15 K, 100 kPa): 54.6 ± 11 mPa·s and 58.75 ± 5.9 mPa·s and 59.2 ± 0.7 mPa·s
- viscosity (293.15 K, 101.3 kPa): 57.2 ± 0.2 mPa·s
- viscosity (298.15 K, 101.3 kPa): 43.5 ± 0.5 mPa·s and 43.6 ± 0.2 mPa·s
- viscosity (303.15 K, 100 kPa): 33.06 ± 0.69 mPa·s
- viscosity (303.15 K, 101 kPa): 34.28 ± 0.094 mPa·s and 33.1 ± 0.7 mPa·s
- viscosity (303.15 K, 101.3 kPa): 32.73 ± 0.42 mPa·s
- viscosity (308.15 K, 100 kPa): 25.31 ± 0.53 mPa·s and 24.9 ± 0.3 mPa·s
- viscosity (308.15 K, 101.3 kPa): 25.1 ± 0.3 mPa·s and 24.8 ± 0.1 mPa·s
- viscosity (313 K, 101 kPa): 20.2 ± 0.6 mPa·s
- viscosity (313.15 K, 100 kPa): 19.65 ± 2 mPa·s and 19.3 ± 0.2 mPa·s
- viscosity (313.15 K, 101 kPa): 20.43 ± 0.055 mPa·s and 19.65 ± 0.09 mPa·s and 21.46 ± 0.12 mPa·s
- viscosity (313.15 K, 101.3 kPa): 19.47 ± 0.23 mPa·s and 19.47 ± 0.14 mPa·s
- viscosity (318.15 K, 101.3 kPa): 15.36 ± 0.17 mPa·s and 15.2 ± 0.1 mPa·s and 15.36 ± 0.11 mPa·s
- viscosity (323.15 K, 100 kPa): 12.53 ± 0.26 mPa·s and 12.54 ± 1.3 mPa·s and 12.51 ± 0.28 mPa·s
- viscosity (323.15 K, 101 kPa): 12.2 ± 0.73 mPa·s
- viscosity (323.15 K, 101.3 kPa): 12.34 ± 0.14 mPa·s

SMILES: CCCCC(=O)[O-].CC[NH+](CC)CCO
- viscosity (293.15 K, 101 kPa): 62.45 ± 1.1 mPa·s
- viscosity (298.15 K, 101 kPa): 47.75 ± 0.81 mPa·s
- viscosity (303.15 K, 101 kPa): 37.12 ± 0.63 mPa·s
- viscosity (308.15 K, 101 kPa): 29.31 ± 0.5 mPa·s
- viscosity (313.15 K, 101 kPa): 23.48 ± 0.4 mPa·s
- viscosity (318.15 K, 101 kPa): 19.07 ± 0.32 mPa·s
- viscosity (323.15 K, 101 kPa): 15.68 ± 0.27 mPa·s

SMILES: CCCCCCCC[P+](CC)(CC)CC.N#Cc1ccc[n-]1
- viscosity (293.15 K, 100 kPa): 272 ± 39 mPa·s
- viscosity (298.15 K, 100 kPa): 189 ± 27 mPa·s
- viscosity (303.15 K, 100 kPa): 140 ± 20 mPa·s
- viscosity (313.15 K, 100 kPa): 82 ± 12 mPa·s

SMILES: CCCCn1cc[n+](C)c1.COP(=O)([O-])OC
- viscosity (293.15 K, 101 kPa): 895.4 ± 36 mPa·s
- viscosity (298.15 K, 101 kPa): 608.9 ± 21 mPa·s
- viscosity (303.15 K, 101 kPa): 426 ± 13 mPa·s
- viscosity (308.15 K, 101 kPa): 305.8 ± 8.1 mPa·s
- viscosity (313.15 K, 101 kPa): 224.9 ± 5.1 mPa·s
- viscosity (318.15 K, 101 kPa): 168.9 ± 3.3 mPa·s
- viscosity (323.15 K, 101 kPa): 129.4 ± 2.2 mPa·s

SMILES: CCC[N+]1(C)CCCC1.N#C[N-]C#N
- viscosity (313.15 K, 101 kPa): 18.6 ± 1.9 mPa·s

SMILES: Cc1ccccn1
- viscosity (293.15 K, 101 kPa): 0.808 ± 0.014 mPa·s
- viscosity (298.15 K, 101 kPa): 0.792 ± 0.013 mPa·s
- viscosity (298.18 K, 101 kPa): 0.751 ± 0.012 mPa·s
- viscosity (303.15 K, 101.3 kPa): 0.7406 ± 0.017 mPa·s
- viscosity (303.21 K, 101 kPa): 0.704 ± 0.011 mPa·s
- viscosity (308.23 K, 101 kPa): 0.663 ± 0.01 mPa·s
- viscosity (313.15 K, 101 kPa): 0.628 ± 0.011 mPa·s
- viscosity (313.15 K, 101.3 kPa): 0.6537 ± 0.015 mPa·s and 0.6534 ± 0.015 mPa·s
- viscosity (313.29 K, 101 kPa): 0.623 ± 0.01 mPa·s
- viscosity (318.33 K, 101 kPa): 0.588 ± 0.009 mPa·s
- viscosity (323.15 K, 101.3 kPa): 0.5843 ± 0.014 mPa·s

SMILES: ClC=C(Cl)Cl
- viscosity (293.15 K, 101 kPa): 0.568 ± 0.011 mPa·s
- viscosity (293.15 K, 101.33 kPa): 0.572 ± 0.011 mPa·s
- viscosity (298 K, 101 kPa): 0.69 ± 0.02 mPa·s
- viscosity (298.15 K, 101 kPa): 0.531 ± 0.005 mPa·s
- viscosity (298.15 K, 101.33 kPa): 0.529 ± 0.006 mPa·s and 0.618 ± 0.008 mPa·s
- viscosity (303 K, 101 kPa): 0.66 ± 0.01 mPa·s
- viscosity (303.15 K, 101 kPa): 0.52 ± 0.011 mPa·s and 0.523 ± 0.0045 mPa·s
- viscosity (303.15 K, 101.3 kPa): 0.509 ± 0.009 mPa·s and 0.515 ± 0.008 mPa·s
- viscosity (303.15 K, 101.32 kPa): 0.523 ± 0.0072 mPa·s
- viscosity (303.15 K, 101.33 kPa): 0.523 ± 0.004 mPa·s and 0.515 ± 0.015 mPa·s and 0.532 ± 0.01 mPa·s
- viscosity (308 K, 101 kPa): 0.63 ± 0.01 mPa·s
- viscosity (308.15 K, 101 kPa): 0.489 ± 0.005 mPa·s
- viscosity (308.15 K, 101.33 kPa): 0.588 ± 0.008 mPa·s
- viscosity (313 K, 101 kPa): 0.6 ± 0.01 mPa·s
- viscosity (313.15 K, 101 kPa): 0.482 ± 0.01 mPa·s and 0.531 ± 0.0071 mPa·s
- viscosity (313.15 K, 101.33 kPa): 0.486 ± 0.014 mPa·s and 0.473 ± 0.0092 mPa·s
- viscosity (318.15 K, 101 kPa): 0.45 ± 0.005 mPa·s
- viscosity (318.15 K, 101.33 kPa): 0.557 ± 0.007 mPa·s
- viscosity (323.15 K, 101 kPa): 0.445 ± 0.009 mPa·s and 0.472 ± 0.0063 mPa·s

SMILES: NC1CCCCC1
- viscosity (298.15 K, 101 kPa): 1.753 ± 0.013 mPa·s (2×) and 1.773 ± 0.021 mPa·s and 1.753 ± 0.012 mPa·s
- viscosity (303.15 K, 101 kPa): 1.656 ± 0.014 mPa·s and 1.648 ± 0.019 mPa·s
- viscosity (308.15 K, 101 kPa): 1.325 ± 0.14 mPa·s and 1.325 ± 0.017 mPa·s

SMILES: O=C1CCCC1
- viscosity (298.15 K, 101 kPa): 1.084 ± 0.014 mPa·s and 1.125 ± 0.0079 mPa·s
- viscosity (298.15 K, 101.3 kPa): 1.074 ± 0.027 mPa·s
- viscosity (303.15 K, 100 kPa): 0.985 ± 0.1 mPa·s
- viscosity (303.15 K, 101.33 kPa): 0.992 ± 0.027 mPa·s
- viscosity (308.15 K, 100 kPa): 0.931 ± 0.1 mPa·s
- viscosity (308.15 K, 101 kPa): 0.923 ± 0.012 mPa·s and 0.931 ± 0.046 mPa·s and 0.928 ± 0.035 mPa·s
- viscosity (313.15 K, 100 kPa): 0.863 ± 0.1 mPa·s
- viscosity (313.15 K, 101 kPa): 0.861 ± 0.012 mPa·s and 0.861 ± 0.011 mPa·s and 0.863 ± 0.044 mPa·s
- viscosity (318.15 K, 100 kPa): 0.811 ± 0.1 mPa·s
- viscosity (318.15 K, 101 kPa): 0.811 ± 0.041 mPa·s

SMILES: O=C[O-].OCC[NH2+]CCO
- viscosity (293.15 K, 100 kPa): 470.9 ± 96 mPa·s
- viscosity (303.15 K, 100 kPa): 242 ± 49 mPa·s
- viscosity (313.15 K, 100 kPa): 135 ± 27 mPa·s
- viscosity (323.15 K, 100 kPa): 82.25 ± 17 mPa·s

SMILES: C1COCCN1 + O
- viscosity ([1]; x1 = 0.01898): 1.327 ± 0.011 mPa·s
- viscosity ([1]; x1 = 0.04739): 1.963 ± 0.017 mPa·s
- viscosity ([1]; x1 = 0.08285): 3.082 ± 0.03 mPa·s
- viscosity ([1]; x1 = 0.1083): 4.064 ± 0.042 mPa·s
- viscosity ([1]; x1 = 0.1739): 7.227 ± 0.085 mPa·s
- viscosity ([1]; x1 = 0.2362): 10.22 ± 0.13 mPa·s
- viscosity ([1]; x1 = 0.2817): 11.61 ± 0.16 mPa·s
- viscosity ([1]; x1 = 0.3018): 11.87 ± 0.16 mPa·s
- viscosity ([1]; x1 = 0.3247): 12.17 ± 0.17 mPa·s
- viscosity ([1]; x1 = 0.3476): 12.13 ± 0.17 mPa·s
- viscosity ([1]; x1 = 0.3543): 12.09 ± 0.17 mPa·s
- viscosity ([1]; x1 = 0.4548): 10.43 ± 0.15 mPa·s
- viscosity ([1]; x1 = 0.68): 5.954 ± 0.081 mPa·s

Reference: the CheMixHub viscosity set
